Measured values reported in patent US11458212B2, “Molecular imaging of cancer cells in vivo” (H. Lee Moffitt Cancer Center and Research Institute, Inc., priority 2011, dated 2022).
pEC50, pKi: −log10 of the molar value. “Also recorded” adds a separate entry of the source.

Key:
[1] = tested on: TLR2 expressing tumor xenografts (SU.86.86 cells); assay: In vivo TLR2 selectivity / tumor retention fluorescence imaging; set-up: species or system nude mice
TLR2 [2] = target: T1, TLR2 (Homo sapiens, UniProt O60603); assay: In cyto europium TRF competition binding assay; set-up: ATCC (SU.86.86 CRL-1837, Capan-I HTB-79); SU.86.86 and Capan-I express TLR2 endogenously
Procedure: Europium TRF binding assays were performed as previously described with slight modifications using 3 cell lines that express TLR2: HEK-293/hTLR2, SU.86.86, and Capan-I.[23a, 23d, 29] The Capan-I and SU.86.86 cells were plated in 96-well black plates with white opaque wells (PerkinElmer); while the HEK-293/hTLR2 cells were plated on 96-well poly-D-lysine coated plates (Sigma-Aldrich) to aid in the attachment of these cells to the plate. Cells were grown in the 96-well plates for 2 days reaching approximately 80% confluency. Both types of plates were evaluated for nonspecific binding and background signal.
Competition binding assays were performed to test the TLR2 binding specificity of the test ligands using 2 cell lines: HEK-293/hTLR2 and SU.86.86. Cells were grown in 96-well plates for 2 days reaching approximately 80% confluency. On the day of the experiment, the cell culture media was aspirated and 50 μL of non-labeled test ligand was added in a series of decreasing concentrations (1 μM to 0.01 nM) followed by 50 μL of the competing Eu-labeled ligand 10 at a fixed concentration of 90 nM. Cells were incubated with labeled and unlabeled ligands for 1 h at 37° C. […] Cells were incubated for 30 min at 37° C. prior to reading. The plates were read on PerkinElmer VICTOR X4 Multilabel reader using the standard europium TRF protocol. […]

[3] = tested on: TLR2 expressing tumor xenografts (SU.86.86 cells); assay: In vivo TLR2 selectivity / tumor retention fluorescence imaging; set-up: species or system nude mice; details: for retention of fluorescence signal in tumor: 24 h post injection
Procedure: Female athymic nude mice 6-8 weeks old (Harlan) bearing human pancreatic tumor xenografts consisting of SU.86.86 cells on the right flank were used for this study. Mouse weights and tumor volumes were determined using caliper measurements and the formula: volume (mm3)=(length×width^2)/2. Images were acquired when the tumors reached an average size of 500 mm^3. For the blocked group, a co-injection of 100 nmol/kg of the fluorescently labeled compound 13 plus 2 μmol/kg Pam2CSK4 (a 20-fold excess) was administered via tail vein injection; for the unblocked group, 100 nmol/kg 13 was administered. Fluorescence images were acquired at time 0 and 24 h using the Caliper Xenogen IVIS200 system (PerkinElmer) with the 710-760 nm excitation and 810-875 nm emission filter set. The fluorescence was quantified using Living Image software, in which the quantified signals were corrected for both instrument and mouse background subtractions. The quantified fluorescence was then plotted using GraphPad Prism software and underwent statistical analysis using Student's t-test.
For further confirmation of ligand 13 specificity for TLR2, ex vivo fluorescence imaging and histological analyses were performed on the tumors. For histological analyses the samples were fixed in 10% formalin solution, processed, embedded, sectioned and either H&E stained for the presence of tumor or underwent IHC staining using TLR2 antibody (Abcam #ab24192).

[4] = tested on: orthotopic pancreatic tumors; assay: FL guided intraoperative surgical removal of orthotopic pancreatic tumors; assay type: in vivo, mice; details: 24 h post-injection, data not shown
Text: Improved survival rates for pancreatic cancer are associated with the complete surgical resection of tumor resulting in a tumor-free margin (R0). New methods employing intraoperative fluorescence (FL) guided tumor detection could lead to increased R0 margins and improved survival. We have reported Toll-like receptor 2 (TLR2) as a bona fide cell-surface marker for pancreatic adenocarcinoma. We then developed a high-affinity TLR2 binding ligand conjugated to a near-infrared (NIR) fluorescent dye, IR800CW, as a targeted molecular imaging probe for the intraoperative detection of surgical margins. To evaluate the in vivo pharmacokinetics and biodistribution of compound 13, FL imaging was performed on multiple optical imaging systems (PerkinElmer IVIS 200 and FMT2500XL, and ART Optix MX3) using TLR2 expressing pancreatic tumor xenograft mouse models (subcutaneous and orthotopic). […] Prior to surgery, the orthotopic pancreatic tumor volumes were monitored weekly and measured in vivo by 3D ultrasound imaging. […]

TLR2 [5] = target: T1, TLR2; assay: In vitro TLR2 functional bioassay (NF-κB luciferase, HEK293/hTLR2 cells); assay type: cell-based; set-up: host or cells: HEK293 stably transfected with pUNO-hTLR2, transiently transfected with the pNifty-Luc reporter; details: dose-response 0.001 ng/mL to 10 μg/mL; read-out: TLR2 Agonist Activity EC50
Text: In Vitro TLR2 Functional Bioassay The in vitro TLR2 functional bioassay was developed and optimized for use in screening soluble compound libraries to identify both TLR2 agonists and antagonists. In this study, the TLR2 functional bioassay was used as a fast high throughput screening to identify TLR2 agonist ligands by measuring the inducing activity of NF-κB. HEK293/hTLR2 cells, highly overexpressing human TLR2, were used along with the parental HEK293, cells as a negative control. Cells were seeded at a density of 40,000 per well using a WellMate® Microplate dispenser (Thermo Fischer Scientific/Matrix) in black 96-well plates with opaque white wells (Perkin Elmer Wallac, Waltham, Mass.) and then incubated at 37° C. On day 2, the cells were transiently transfected with pNifty-Luc (InvivoGen), an NF-κB inducible reporter plasmid expressing the luciferase reporter gene (Zuany-Amorim, C., J., et al. Nat Rev Drug Discov, 2002. 1(10):797-807), using an optimized 4:1 ratio by volume of Fugene® HD Transfection Reagent (Roche Applied Science, Indianapolis, Ind.) to pNifty-Luc plasmid DNA (1 μg/mL). […] On day 4 after 24 hrs of peptide stimulation, luciferase induced activity by the induction of NF-κB was measured. Media was aspirated from the wells using an ELx405 Select plate washer (BioTek, Winooski, Vt.), 150 μg/mL D-luciferin (Gold Biotechnology, St. Louis, Mo.) was dispensed using the microplate dispensor; the plates were incubated at 37° C. for 5 min. The luminescence intensity was measured using the standard luminescence protocol on a Victor™ X4 plate-reader equipped with a plate stacker for readout of multiple plates at a time (PerkinElmer, Waltham, Mass.). For each in vitro TLR2 bioassay, at least three different experiments were performed in triplicate (n=3+). Data were analyzed with GraphPad Prism software and curves were generated with the appropriate nonlinear fit regression analysis.
The in vitro TLR2 functional bioassay was developed and optimized for use in high-throughput screening of soluble compound libraries to identify both TLR2 agonists and antagonists. The bioassay measures the induction of NF-κB signaling via TLR2 in HEK-293/hTLR2 cells and parental HEK-293 cells as a negative control. Cells were seeded at a density of 40,000 per well using a WellMate Microplate dispenser (Thermo Fisher Scientific/Matrix) in black 96-well plates with opaque white wells (PerkinElmer, Waltham, Mass.) and then incubated at 37° C. On day 2, the cells were transiently transfected with pNifty-Luc (InvivoGen, San Diego, Calif.), an NF-κB inducible reporter plasmid expressing the luciferase reporter gene[28] using an optimized 4:1 ratio by volume of FugeneHD Transfection Reagent (Promega, Madison, Wis.) to pNifty-Luc plasmid DNA (1 μg/mL). […] […] On day 4 after 24 h of peptide stimulation, luciferase induced activity by the induction of NF-κB was measured. Media was aspirated from the wells using an ELx405 Select CW plate washer (BioTek, Winooski, Vt.), 150 μg/mL D-luciferin (Gold Biotechnology, St. Louis, Mo.) was dispensed using the microplate dispensor; the plates were incubated at 37° C. for 5 min. The luminescence intensity was measured using the standard luminescence protocol on a Victor X4 Multilabel plate reader equipped with a plate stacker for readout of multiple plates at a time (PerkinElmer, Waltham, Mass.). […] Data were analyzed with GraphPad Prism software and curves were generated with the appropriate nonlinear fit regression analysis.

T1 sequence (O60603 21-784): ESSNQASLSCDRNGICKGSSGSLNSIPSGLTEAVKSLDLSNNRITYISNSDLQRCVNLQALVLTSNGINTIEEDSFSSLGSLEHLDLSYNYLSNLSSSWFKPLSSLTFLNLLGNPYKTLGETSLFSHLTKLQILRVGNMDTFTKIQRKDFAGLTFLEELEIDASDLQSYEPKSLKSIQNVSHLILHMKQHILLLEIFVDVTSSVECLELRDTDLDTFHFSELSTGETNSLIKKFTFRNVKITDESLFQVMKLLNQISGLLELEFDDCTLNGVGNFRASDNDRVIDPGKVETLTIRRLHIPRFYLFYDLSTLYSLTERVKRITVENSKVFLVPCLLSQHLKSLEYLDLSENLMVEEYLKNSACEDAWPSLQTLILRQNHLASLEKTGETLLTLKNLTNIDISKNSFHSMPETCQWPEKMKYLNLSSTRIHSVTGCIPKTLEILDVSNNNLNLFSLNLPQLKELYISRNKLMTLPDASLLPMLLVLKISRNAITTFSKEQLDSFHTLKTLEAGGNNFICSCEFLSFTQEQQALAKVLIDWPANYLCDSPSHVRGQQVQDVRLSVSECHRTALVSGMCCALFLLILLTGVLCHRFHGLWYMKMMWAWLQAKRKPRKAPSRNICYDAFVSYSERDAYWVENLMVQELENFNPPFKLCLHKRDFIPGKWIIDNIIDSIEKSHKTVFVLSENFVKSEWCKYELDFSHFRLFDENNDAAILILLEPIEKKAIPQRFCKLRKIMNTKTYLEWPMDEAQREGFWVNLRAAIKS
T1 sequence (Q9Y2C9 32-796 partner): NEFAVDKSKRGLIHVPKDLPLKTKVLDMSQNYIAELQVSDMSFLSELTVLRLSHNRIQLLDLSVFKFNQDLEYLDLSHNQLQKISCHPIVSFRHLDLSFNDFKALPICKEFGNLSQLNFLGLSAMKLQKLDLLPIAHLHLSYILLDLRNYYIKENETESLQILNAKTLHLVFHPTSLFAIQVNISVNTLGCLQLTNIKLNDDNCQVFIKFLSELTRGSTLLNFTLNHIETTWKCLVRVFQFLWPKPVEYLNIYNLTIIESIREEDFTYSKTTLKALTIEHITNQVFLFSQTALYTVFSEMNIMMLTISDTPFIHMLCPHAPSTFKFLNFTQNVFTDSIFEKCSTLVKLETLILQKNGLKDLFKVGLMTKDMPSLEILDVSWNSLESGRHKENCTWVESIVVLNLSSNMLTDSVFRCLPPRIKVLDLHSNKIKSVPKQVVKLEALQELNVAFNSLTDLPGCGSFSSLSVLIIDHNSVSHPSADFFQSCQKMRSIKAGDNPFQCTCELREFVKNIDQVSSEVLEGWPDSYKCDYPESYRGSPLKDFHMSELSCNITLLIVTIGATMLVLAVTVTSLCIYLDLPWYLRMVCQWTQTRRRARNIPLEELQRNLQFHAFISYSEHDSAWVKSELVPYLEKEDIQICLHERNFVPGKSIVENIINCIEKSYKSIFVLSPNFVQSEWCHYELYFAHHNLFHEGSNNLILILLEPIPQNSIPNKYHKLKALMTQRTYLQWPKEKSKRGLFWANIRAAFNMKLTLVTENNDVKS

pKi (TLR2 [2]; SU.86.86 cells, 90 nM compound 11): 7.17 | pKi (TLR2 [2]; competitive binding assay, cell line not stated): 7.96 | pEC50 (TLR2 [5]): 7.47
Compound: CCCCCCCCCCCCCCCC(=O)OC[C@H](CSC[C@H](NC(=O)COCC(=O)NCCCOCCOCCOCCCNC(=O)CCSC1CC(=O)N(CCNC(=O)CCCCC[N+]2=C(/C=C/C3=C(Oc4ccc(S(=O)(=O)[O-])cc4)C(=C/C=C4/N(CCCCS(=O)(=O)O)c5ccc(S(=O)(=O)O)cc5C4(C)C)/CCC3)C(C)(C)c3cc(S(=O)(=O)O)ccc32)C1=O)C(=O)NCC(=O)N[C@H](CO)C(=O)NCCCOCCOCCOCCCNC(=O)COCC(N)=O)OC(=O)CCCCCCCCCCCCCCC (stereo partly drawn) [Compound 13, IRDye800CW-Mpr-PEGO-Cys(S-[2,3-bis(palmitoyl)oxy-(R)-propyl])-Gly-DSer-PEGO-NH2]
duration of retention in the SU.86.86 tumor ([1]; 10 nmol/Kg dosage): over 96 h | clearance from the kidney ([1]; mouse, in vivo): cleared from the kidney within days of the injection but was retained longer in the tumor | uptake in orthotopic pancreatic tumor xenografts ([1]; orthotopic): taken into and retained in orthotopic pancreatic tumor xenografts | duration of FL signal retention in TLR2 expressing tumor xenografts ([1]; post-injection, dose not stated): up to 96 h | mean tumor fluorescence unblocked / blocked ([3]; 24 h, 100 nmol/kg 13 ± 2 μmol/kg Pam2CSK4 (20-fold excess), n=8): 1.94 fold | effect of blocking with excess unlabeled ligand on tumor signal ([3]; 24 h, p<0.001): significantly decreased FL signal in the tumor; also recorded: significant reduction in the tumor fluorescence | retention of fluorescence signal in tumor [3]: Fluorescence signal was present in TLR2 expressing pancreatic tumor xenografts; also recorded: retention of fluorescence signal in the tumor | retention of fluorescence signal in tumor ([3]; listed as LiCor IRDye800CW/T-02 conjugate): retained in the tumor at 24 h post injection while the agent had cleared from the animal except for the kidneys | intraoperative fluorescence detection of tumor [4]: intraoperative detection of pancreatic cancer were demonstrated
